Test results published in patent EP0090204A1, “Optically active levorotatory derivatives of phenoxy-benzoic acid, method for their preparation and their use as herbicides” (BAYER AG, priority 1982, dated 1983).

What was measured:
Type in all cases: in vivo
[1] = test system: Dicotyledoneae; test: Pre-emergence test; settings: % damage vs untreated control after three weeks, average effect on several dicots
Excerpt: (§1) Zur Herstellung einer zweckmäßigen Wirkstoffzubereitung vermischt man 1 Gewichtsteil Wirkstoff mit der angegebenen Menge Lösungsmittel, gibt die angegebene Menge Emulgator zu und verdünnt das Konzentrat mit Wasser auf die gewünschte Konzentration.
(§2) Samen der Testpflanzen werden in normalen Boden ausgesät und nach 24 Stunden mit der Wirkstoffzubereitung begossen. Dabei hält man die Wassermenge pro Flächeneinheit zweckmäßigerweise konstant. Die Wirkstoffkonzentration in der Zubereitung spielt keine Rolle, entscheidend ist nur die Aufwandmenge des Wirkstoffs pro Flächeneinheit. Nach drei Wochen wird der Schädigungsgrad der Pflanzen bonitiert in % Schädigung im Vergleich zur Entwicklung der unbehandelten Kontrolle.

[2] = test system: Mais; test: Pre-emergence test; settings: % damage vs untreated control after three weeks
Excerpt: as §1, §2

[3] = test system: Monocotyledoneae; test: Pre-emergence test; settings: % damage vs untreated control after three weeks, average effect on several monocots
Excerpt: as §1, §2

[4] = test system: Rüben; test: Pre-emergence test; settings: % damage vs untreated control after three weeks
Excerpt: as §1, §2

[5] = test system: Soja; test: Pre-emergence test; settings: % damage vs untreated control after three weeks
Excerpt: as §1, §2

[6] = test system: Dicotyledoneae; test: Post-emergence test; settings: % damage vs untreated control after three weeks, average effect on several dicots
Excerpt: as §1
(§3) Mit der Wirkstoffzubereitung spritzt man Testpflanzen, welche eine Höhe von 5 - 15 cm haben so, daß die jeweils gewünschten Wirkstoffmengen pro Flächeneinheit ausgebracht werden. Die Konzentration der Spritzbrühe wird so gewählt, daß in 2000 1 Wasser/ha die jeweils gewünschten Wirkstoffmengen ausgebracht werden. Nach drei Wochen wird der Schädigungsgrad der Pflanzen bonitiert in % Schädigung im Vergleich zur Entwicklung der unbehandelten Kontrolle.

[7] = test system: Mais; test: Post-emergence test; settings: % damage vs untreated control after three weeks
Excerpt: as §1, §3

[8] = test system: Monocotyledoneae; test: Post-emergence test; settings: % damage vs untreated control after three weeks, average effect on several monocots
Excerpt: as §1, §3

[9] = test system: Rüben; test: Post-emergence test; settings: % damage vs untreated control after three weeks
Excerpt: as §1, §3

[10] = test system: Soja; test: Post-emergence test; settings: % damage vs untreated control after three weeks
Excerpt: as §1, §3

[11] = test system: Testpflanzen; test: Pre-emergence test, overall comparison; settings: compared with the corresponding racemic compounds (A) and (B)
Excerpt: as §1, §2

[12] = test system: Testpflanzen; test: Post-emergence test, overall comparison; settings: compared with the corresponding racemic compounds (A) and (B)
Excerpt: as §1, §3

## CCOC(=O)[C@@H](C)OC(=O)c1cc(Oc2c(Cl)cc(C(F)(F)F)cc2Cl)ccc1[N+](=O)[O-] [(1), 5-(2,6-Dichlor-4-trifluormethyl-phenoxy)-2-nitro-benzoesäure-(1-ethoxycarbonylethyl)-esters]
[1]; 0,6 kg/ha
  Wirkung (in %) Dicotyledoneae: 92,7%
[2]; 0,6 kg/ha
  Wirkung (in %) Mais: 10%
[3]; 0,6 kg/ha
  Wirkung (in %) Monocotyledoneae: 79,3%
[4]; 0,6 kg/ha
  Wirkung (in %) Rüben: 100%
[5]; 0,6 kg/ha
  Wirkung (in %) Soja: 10%
[6]; 0,6 kg/ha
  Wirkung (in %) Dicotyledoneae: 99,3%
[7]; 0,6 kg/ha
  Wirkung (in %) Mais: 80%
[8]; 0,6 kg/ha
  Wirkung (in %) Monocotyledoneae: 81,1%
[9]; 0,6 kg/ha
  Wirkung (in %) Rüben: 100%
[10]; 0,6 kg/ha
  Wirkung (in %) Soja: 100%
[11]
  herbizide Wirksamkeit: bessere herbizide Wirksamkeit
[12]
  herbizide Wirksamkeit: bessere herbizide Wirksamkeit

## CCOC(=O)[C@@H](C)OC(=O)c1cc(Oc2ccc(C(F)(F)F)cc2Cl)ccc1[N+](=O)[O-] [(2), 5-(2-Chlor-4-trifluormethyl-phenoxy)-2-nitro-benzoesäure-(1-ethoxycarbonyl-ethyl)-esters]
[1]; 0,75 kg/ha
  Wirkung (in %) Dicotyledoneae: 74,3%
[2]; 0,75 kg/ha
  Wirkung (in %) Mais: 0%
[3]; 0,75 kg/ha
  Wirkung (in %) Monocotyledoneae: 80,7%
[4]; 0,75 kg/ha
  Wirkung (in %) Rüben: 99%
[5]; 0,75 kg/ha
  Wirkung (in %) Soja: 0%
[6]; 0,75 kg/ha
  Wirkung (in %) Dicotyledoneae: 99,3%
[7]; 0,75 kg/ha
  Wirkung (in %) Mais: 99%
[8]; 0,75 kg/ha
  Wirkung (in %) Monocotyledoneae: 86,3%
[9]; 0,75 kg/ha
  Wirkung (in %) Rüben: 100%
[10]; 0,75 kg/ha
  Wirkung (in %) Soja: 99%
[11]
  herbizide Wirksamkeit: bessere herbizide Wirksamkeit
[12]
  herbizide Wirksamkeit: bessere herbizide Wirksamkeit
